The results in this text go back to US10654853B2, “Spiro-condensed pyrrolidine derivatives as deubiquitylating enzymes (DUB) inhibitors” (MISSION THERAPEUTICS LIMITED, priority 2016, dated 2020).

SMILES strings stand for the structures.

This assay addresses Cezanne 1 (Homo sapiens (Human), UniProt Q6GQQ9). Description: Cezanne 1 biochemical IC50 assay (fluorescence polarisation, TAMRA labelled peptide linked to ubiquitin). The conditions noted are these: Cezanne 1 biochemical IC50 assay; 30 min pre-incubation, read after 2 hr at room temperature; read-out: IC50 range. Summed up: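 FLAG-tagged Cezanne 1, expressed in HEK293T and FLAG-purified, was preincubated with compound for 30 min at room temperature in Tris pH 7.5 buffer with Tween 20, BSA and β-mercaptoethanol. Reactions were started with 50 nM TAMRA-peptide isopeptide-linked to ubiquitin. Fluorescence polarisation (ex 540/em 590 nm) was read immediately and after 2 h.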
(In fluorescence polarisation assays a small probe gives low polarisation when free and higher when bound to something large.)

Chain of Cezanne 1 (Q6GQQ9 whole entry): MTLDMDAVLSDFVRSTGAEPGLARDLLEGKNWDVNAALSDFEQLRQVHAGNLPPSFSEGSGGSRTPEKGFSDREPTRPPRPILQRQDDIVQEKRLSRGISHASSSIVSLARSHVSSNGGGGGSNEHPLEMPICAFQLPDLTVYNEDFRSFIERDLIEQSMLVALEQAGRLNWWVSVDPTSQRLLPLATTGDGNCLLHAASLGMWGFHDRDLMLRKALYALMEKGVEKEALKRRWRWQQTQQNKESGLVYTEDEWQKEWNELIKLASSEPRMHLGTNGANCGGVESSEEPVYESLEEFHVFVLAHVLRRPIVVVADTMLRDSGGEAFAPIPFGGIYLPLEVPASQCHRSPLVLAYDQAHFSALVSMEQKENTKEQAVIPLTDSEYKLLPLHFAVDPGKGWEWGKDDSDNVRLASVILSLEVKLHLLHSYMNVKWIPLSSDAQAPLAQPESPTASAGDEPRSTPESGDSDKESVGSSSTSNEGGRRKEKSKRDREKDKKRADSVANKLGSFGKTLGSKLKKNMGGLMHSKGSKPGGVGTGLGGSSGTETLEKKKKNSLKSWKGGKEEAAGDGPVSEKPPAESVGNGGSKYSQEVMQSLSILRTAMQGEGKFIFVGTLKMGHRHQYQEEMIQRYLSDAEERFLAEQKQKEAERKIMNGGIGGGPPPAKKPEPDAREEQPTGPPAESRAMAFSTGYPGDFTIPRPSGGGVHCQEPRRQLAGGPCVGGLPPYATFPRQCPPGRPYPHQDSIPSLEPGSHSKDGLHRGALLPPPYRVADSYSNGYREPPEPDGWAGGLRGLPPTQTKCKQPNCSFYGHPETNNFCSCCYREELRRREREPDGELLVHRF

Consider `Cn1ncc2cc(-c3ccc4c(c3)CC3(CCN(C#N)C3)C(=O)N4)ccc21` (stereo not shown) [Example 107, 6′-(1-Methyl-1H-indazol-5-yl)-2′-oxo-1′,4′-dihydro-2′H-spiro[pyrrolidine-3,3′-quinoline]-1-carbonitrile], for which the half-inhibitory concentration (IC50) (usually the point on the concentration scale where inhibition reaches its midpoint) lay within 100 to 1000 nM.

`Cc1ccc2[nH]ncc2c1-c1ccc2c(c1)CC1(CCN(C#N)C1)C(=O)N2` (stereo not shown) [Example 108, 6′-(5-Methyl-1H-indazol-4-yl)-2′-oxo-1′,4′-dihydro-2′H-spiro[pyrrolidine-3,3′-quinoline]-1-carbonitrile]: the IC50 was 100 to 1000 nM. As for `N#CN1CCC2(Cc3cc(-c4cccc(NS(=O)(=O)C5CC5)c4)ccc3NC2=O)C1` (stereo not shown) [Example 109, N-(3-(1-Cyano-2′-oxo-1′,4′-dihydro-2′H-spiro[pyrrolidine-3,3′-quinolin]-6′-yl)phenyl)cyclopropanesulfonamide], the IC50 was in the range of 100 to 1000 nM.

With `CN(C)C(=O)c1ccc(-c2ccc3c(c2)CC2(CCN(C#N)C2)C(=O)N3)cc1` (stereo not shown) [Example 110, 4-(1-Cyano-2′-oxo-1′,4′-dihydro-2′H-spiro[pyrrolidine-3,3′-quinolin]-6′-yl)-N,N-dimethylbenzamide], the IC50 is 100 to 1000 nM.

As to `N#CN1CCC2(Cc3cc(-c4cncnc4)ccc3NC2=O)C1` (stereo not shown) [Example 111, 2′-Oxo-6′-(pyrimidin-5-yl)-1′,4′-dihydro-2′H-spiro[pyrrolidine-3,3′-quinoline]-1-carbonitrile], the IC50 is 100 to 1000 nM. As for `CC(=O)Nc1cccc(-c2ccc3c(c2)CC2(CCN(C#N)C2)C(=O)N3)c1` (stereo not shown) [Example 112, N-(3-(1-Cyano-2′-oxo-1′,4′-dihydro-2′H-spiro[pyrrolidine-3,3′-quinolin]-6′-yl)phenyl)acetamide], the figure is 100 to 1000 nM; as for `CC(=O)Nc1ccc(-c2ccc3c(c2)CC2(CCN(C#N)C2)C(=O)N3)cc1` (stereo not shown) [Example 113, N-(4-(1-Cyano-2′-oxo-1′,4′-dihydro-2′H-spiro[pyrrolidine-3,3′-quinolin]-6′-yl)phenyl)acetamide], 100 to 1000 nM; as for `N#CN1CCC2(Cc3cc(-c4ccc(S(=O)(=O)N5CCOCC5)cc4)ccc3NC2=O)C1` (stereo not shown) [Example 116, 6′-(4-(Morpholinosulfonyl)phenyl)-2′-oxo-1′,4′-dihydro-2′H-spiro[pyrrolidine-3,3′-quinoline]-1-carbonitrile], 100 to 1000 nM. Turning to `N#CN1CCC2(Cc3cc(-c4cccc(N5CCCCC5)c4)ccc3NC2=O)C1` (stereo not shown) [Example 118, 2′-Oxo-6′-(3-(piperidin-1-yl)phenyl)-1′,4′-dihydro-2′H-spiro[pyrrolidine-3,3′-quinoline]-1-carbonitrile], the IC50 is 100 to 1000 nM. The value for `CC(=O)Nc1ccccc1-c1ccc2c(c1)CC1(CCN(C#N)C1)C(=O)N2` (stereo not shown) [Example 119, N-(2-(1-Cyano-2′-oxo-1′,4′-dihydro-2′H-spiro[pyrrolidine-3,3′-quinolin]-6′-yl)phenyl)acetamide] was 100 to 1000 nM.

Regarding `N#CN1CCC2(Cc3cc(-c4ccc(C(=O)N5CCOCC5)cc4)ccc3NC2=O)C1` (stereo not shown) [Example 120, 6′-(4-(Morpholine-4-carbonyl)phenyl)-2′-oxo-1′,4′-dihydro-2′H-spiro[pyrrolidine-3,3′-quinoline]-1-carbonitrile], the IC50 fell in the range of 100 to 1000 nM. Regarding `N#CN1CCC2(Cc3cc(-c4cccc(S(=O)(=O)N5CCOCC5)c4)ccc3NC2=O)C1` (stereo not shown) [Example 121, 6′-(3-(Morpholinosulfonyl)phenyl)-2′-oxo-1′,4′-dihydro-2′H-spiro[pyrrolidine-3,3′-quinoline]-1-carbonitrile], the 50% inhibitory concentration (IC50) was in the range of 100 to 1000 nM.

As for `Cn1cc(-c2ccc3c(c2)CC2(CCN(C#N)C2)C(=O)N3)ccc1=O` (stereo not shown) [Example 122, 6′-(1-Methyl-6-oxo-1,6-dihydropyridin-3-yl)-2′-oxo-1′,4′-dihydro-2′H-spiro[pyrrolidine-3,3′-quinoline]-1-carbonitrile], the IC50 was in the range of 1000 to 10000 nM. As for `Cc1nc2cc(-c3ccc4c(c3)CC3(CCN(C#N)C3)C(=O)N4)ccc2s1` (stereo not shown) [Example 123, 6′-(2-Methylbenzo[d]thiazol-5-yl)-2′-oxo-1′,4′-dihydro-2′H-spiro[pyrrolidine-3,3′-quinoline]-1-carbonitrile], the figure is 100 to 1000 nM. The value for `Cc1noc(C)c1-c1ccc2c(c1)CC1(CCN(C#N)C1)C(=O)N2` (stereo not shown) [Example 124, 6′-(3,5-Dimethylisoxazol-4-yl)-2′-oxo-1′,4′-dihydro-2′H-spiro[pyrrolidine-3,3′-quinoline]-1-carbonitrile] was 100 to 1000 nM; that for `N#CN1CCC2(Cc3cc(-c4cc(OC(F)(F)F)ccc4Cl)ccc3NC2=O)C1` (stereo not shown) [Example 125, 6′-(2-Chloro-5-(trifluoromethoxy)phenyl)-2′-oxo-1′,4′-dihydro-2′H-spiro[pyrrolidine-3,3′-quinoline]-1-carbonitrile] was 100 to 1000 nM; that for `CN1CCN(c2ccc(-c3ccc4c(c3)CC3(CCN(C#N)C3)C(=O)N4)cc2)CC1` (stereo not shown) [Example 126, 6′-(4-(4-Methylpiperazin-1-yl)phenyl)-2′-oxo-1′,4′-dihydro-2′H-spiro[pyrrolidine-3,3′-quinoline]-1-carbonitrile] was 100 to 1000 nM. As for `N#CN1CCC2(Cc3cc(-c4ccc(C(=O)NCc5ccccc5)cc4)ccc3NC2=O)C1` (stereo not shown) [Example 127, N-Benzyl-4-(1-cyano-2′-oxo-1′,4′-dihydro-2′H-spiro[pyrrolidine-3,3′-quinolin]-6′-yl)benzamide], the figure is 100 to 1000 nM; as for `Cc1n[nH]cc1-c1ccc2c(c1)CC1(CCN(C#N)C1)C(=O)N2` (stereo not shown) [Example 128, 6′-(3-Methyl-1H-pyrazol-4-yl)-2′-oxo-1′,4′-dihydro-2′H-spiro[pyrrolidine-3,3′-quinoline]-1-carbonitrile], 100 to 1000 nM; as for `N#CN1CCC2(Cc3cc(-c4ccc(CN5CCOCC5)cc4)ccc3NC2=O)C1` (stereo not shown) [Example 129, 6′-(4-(Morpholinomethyl)phenyl)-2′-oxo-1′,4′-dihydro-2′H-spiro[pyrrolidine-3,3′-quinoline]-1-carbonitrile], 100 to 1000 nM.

As for `CN(C)C(=O)c1cccc(-c2ccc3c(c2)CC2(CCN(C#N)C2)C(=O)N3)c1` (stereo not shown) [Example 130, 3-(1-Cyano-2′-oxo-1′,4′-dihydro-2′H-spiro[pyrrolidine-3,3′-quinolin]-6′-yl)-N,N-dimethylbenzamide], the IC50 lay in the range of 100 to 1000 nM.

Consider `Cc1cc(-c2ccc3c(c2)CC2(CCN(C#N)C2)C(=O)N3)ccn1` (stereo not shown) [Example 131, 6′-(2-Methylpyridin-4-yl)-2′-oxo-1′,4′-dihydro-2′H-spiro[pyrrolidine-3,3′-quinoline]-1-carbonitrile], for which the IC50 was 100 to 1000 nM. As for `Cc1ccc2[nH]ncc2c1-c1ccc2c(c1)NC(=O)[C@@]1(CCN(C#N)C1)C2` [Example 132, (R)-7′-(5-Methyl-H-indazol-4-yl)-2′-oxo-1′,4′-dihydro-2′H-spiro[pyrrolidine-3,3′-quinoline]-1-carbonitrile], the half-maximal inhibitory concentration (IC50) lay in the range of 100 to 1000 nM. The value for `N#CN1CCC2(Cc3ccc(-c4cccc5[nH]ncc45)cc3NC2=O)C1` (stereo not shown) [Example 133, 7′-(1H-Indazol-4-yl)-2′-oxo-1′,4′-dihydro-2′H-spiro[pyrrolidine-3,3′-quinoline]-1-carbonitrile] was 100 to 1000 nM; that for `N#CN1CCC2(Cc3cc(-c4cccc5[nH]ncc45)ccc3NC2=O)C1` (stereo not shown) [Example 134, 6′-(1H-Indazol-4-yl)-2′-oxo-1′,4′-dihydro-2′H-spiro[pyrrolidine-3,3′-quinoline]-1-carbonitrile] was 100 to 1000 nM; that for `N#CN1CCC2(C1)Oc1ncc(-c3cccc4[nH]ncc34)cc1NC2=O` (stereo not shown) [Example 135, 7-(1H-Indazol-4-yl)-2-oxo-1,2-dihydrospiro[pyrido[2,3-b][1,4]oxazine-3,3′-pyrrolidine]-1′-carbonitrile] was less than 100 nM. As for `Cn1ncc2c(-c3cnc4c(c3)NC(=O)C3(CCN(C#N)C3)O4)cccc21` (stereo not shown) [Example 136, 7-(1-Methyl-1H-indazol-4-yl)-2-oxo-1,2-dihydrospiro[pyrido[2,3-b][1,4]oxazine-3,3′-pyrrolidine]-1′-carbonitrile], the figure is less than 100 nM. Consider `N#CN1CCC2(C1)Oc1ncc(-c3cccc4c3cnn4CCO)cc1NC2=O` (stereo not shown) [Example 137, 7-(1-(2-Hydroxyethyl)-1H-indazol-4-yl)-2-oxo-1,2-dihydrospiro[pyrido[2,3-b][1,4]oxazine-3,3′-pyrrolidine]-1′-carbonitrile], for which the IC50 is less than 100 nM.

On to `COc1ccc(-c2cnc3c(c2)NC(=O)C2(CCN(C#N)C2)O3)c(C)n1` (stereo not shown) [Example 138, 7-(6-Methoxy-2-methylpyridin-3-yl)-2-oxo-1,2-dihydrospiro[pyrido[2,3-b][1,4]oxazine-3,3′-pyrrolidine]-1′-carbonitrile], for which the IC50 lay within 100 to 1000 nM.

For `N#CN1CCC2(C1)Oc1nc(-c3cccc4[nH]ncc34)ccc1NC2=O` (stereo not shown) [Example 139, 6-(1H-Indazol-4-yl)-2-oxo-1,2-dihydrospiro[pyrido[2,3-b][1,4]oxazine-3,3′-pyrrolidine]-1′-carbonitrile], the IC50 lay in the range of 100 to 1000 nM. As for `COCCn1ncc2c(-c3cnc4c(c3)NC(=O)C3(CCN(C#N)C3)O4)cccc21` (stereo not shown) [Example 140, 7-(1-(2-Methoxyethyl)-1H-indazol-4-yl)-2-oxo-1,2-dihydrospiro[pyrido[2,3-b][1,4]oxazine-3,3′-pyrrolidine]-1′-carbonitrile], the figure is 100 to 1000 nM; as for `N#CN1CCC2(C1)Oc1nc(C(=O)Nc3ccc(F)cc3)ccc1NC2=O` (stereo not shown) [Example 141, 1′-Cyano-N-(4-fluorophenyl)-2-oxo-1,2-dihydrospiro[pyrido[2,3-b][1,4]oxazine-3,3′-pyrrolidine]-6-carboxamide], 1000 to 10000 nM; as for `N#CN1CCC2(C1)Oc1nc(C(=O)N3CCCCC3)ccc1NC2=O` (stereo not shown) [Example 142, 2-Oxo-6-(piperidine-1-carbonyl)-1,2-dihydrospiro[pyrido[2,3-b][1,4]oxazine-3,3′-pyrrolidine]-1′-carbonitrile], 1000 to 10000 nM. Turning to `N#CN1CCC2(C1)Oc1nc(C(=O)Nc3ccccc3)ccc1NC2=O` (stereo not shown) [Example 143, 1′-Cyano-2-oxo-N-phenyl-1,2-dihydrospiro[pyrido[2,3-b][1,4]oxazine-3,3′-pyrrolidine]-6-carboxamide], the IC50 is 100 to 1000 nM.
